Experimental data taken from publication PMC8536124 (International Journal of Molecular Sciences, 2021).
Marks after values point to notes of the source that are not given here.

Key:
SR = assay: NCI-60 screening (SRB); type: cell-based, human; conditions: five-dose; for GI50 / CC50: Homo sapiens; for CC50: read-out: LC50 (the source's name)
SNB-75 = assay: NCI-60 screening (SRB); type: cell-based, human; conditions: five-dose; for GI50 / CC50: Homo sapiens; for CC50: read-out: LC50 (the source's name)
[1] = Compound stability in cell culture media (TLC); conditions: 5 μM in DMEM and EMEM, 72 h
Procedure: Prior to this assay, compound stability in cell culture media was evaluated after 72 h, using a thin-layer chromatography (TLC)-based protocol, with the necessary modifications [57, 58].
The stability of the assessed compounds in the culture media was evaluated by thin layer chromatography (TLC), this representing a viable and easy to achieve technique for this specific endpoint [57, 58]. […] The solutions were incubated for 72 h, after which the medium was extracted in CHCl3. […] The plate was successively developed with I2 vapors, UV light, and bromocresol green to determine various additional spots corresponding to some decomposition byproducts.

Bcl-XL gene, SK-Mel-28 = assay: Gene expression by qRT-PCR; type: cell-based, human; conditions: 1 μM, mean 2^∆∆Ct, DMSO 4.730
Excerpt: (§1) Apoptosis at the cellular level can be initiated through the mitochondrial intrinsic pathway, which involves the Bcl-2 family of genes that includes the anti-apoptotic Bcl-XL and Bcl-2, as well as the pro-apoptotic Bak and Bax members; the balance between the expressions of anti- and pro-apoptotic proteins ensures physiological cell death. In cancers, the alterations occurring in gene expressions due to down- or up-regulations may result in delayed apoptosis and malignant proliferation. Thus, active compounds that modify the abnormal expression of genes involved in the apoptotic process may successfully act as anticancer agents. We tested the effect of compounds 4 and 6 on the expression of anti-apoptotic (Bcl-XL and Bcl-2) and pro-apoptotic (Bak and Bax) genes (Table 4, Figure 8).
(§2) Total RNA was extracted using peqGold RNAPureTM Package (Peqlab Biotechnology GmbH, Erlangen, Germany) according to the manufacturer’s instructions, and a DS-11 spectrophotometer (DeNovix, Wilmington, DE, USA) was used to measure total concentration of RNA. Reverse transcription was performed using the Maxima® First Strand cDNA Synthesis Kit (Fermentas, St. Leon-Rot, Germany), and the mix was incubated in the Tadvanced biometra product line (Analytik Jena AG, Jena, Germany) with a thermal program of 25 °C for 10 min, 85 °C for 5 min. Quantitative real-time PCR was conducted in a Quant Studio 5 real-time PCR system, (Thermo Fisher Scientific, Inc., Waltham, MA, USA), with analysis being performed in 20 µL reactions containing Power SYBR-Green PCR Master Mix (Thermo Fisher Scientific, Inc.). Cycling conditions were: 95 °C for 10 s followed by 40 cycles of denaturing at 95 °C for 15 s, and annealing and extension at 60 °C for 1 min.

BAX gene, SK-Mel-28 = assay: Gene expression by qRT-PCR; type: cell-based, human; conditions: 1 μM, mean 2^∆∆Ct, DMSO 2.086
Excerpt: as §1, §2

Bcl-2 gene, SK-Mel-28 = assay: Gene expression by qRT-PCR; type: cell-based, human; conditions: 1 μM, mean 2^∆∆Ct, DMSO 2.573
Excerpt: as §1, §2

BAX gene, A375 = assay: Gene expression by qRT-PCR; type: cell-based, human; conditions: 1 μM, mean 2^∆∆Ct, DMSO 4.063
Excerpt: as §1, §2

Bcl-XL gene, RPMI = assay: Gene expression by qRT-PCR; type: cell-based, human; conditions: 1 μM, mean 2^∆∆Ct, DMSO 18.563
Excerpt: as §1, §2

BAK gene, RPMI = assay: Gene expression by qRT-PCR; type: cell-based, human; conditions: 1 μM, mean 2^∆∆Ct, DMSO 4.163
Excerpt: as §1, §2

Bcl-2 gene, A375 = assay: Gene expression by qRT-PCR; type: cell-based, human; conditions: 1 μM, mean 2^∆∆Ct, DMSO 2.216
Excerpt: as §1, §2

BAX gene, RPMI = assay: Gene expression by qRT-PCR; type: cell-based, human; conditions: 1 μM, mean 2^∆∆Ct, DMSO 3.040
Excerpt: as §1, §2

Bcl-XL gene, A375 = assay: Gene expression by qRT-PCR; type: cell-based, human; conditions: 1 μM, mean 2^∆∆Ct, DMSO 4.550
Excerpt: as §1, §2

Bcl-2 gene, RPMI = assay: Gene expression by qRT-PCR; type: cell-based, human; conditions: 1 μM, mean 2^∆∆Ct, DMSO 4.063
Excerpt: as §1, §2

BAK gene, A375 = assay: Gene expression by qRT-PCR; type: cell-based, human; conditions: 1 μM, mean 2^∆∆Ct, DMSO 5.200
Excerpt: as §1, §2

BAK gene, SK-Mel-28 = assay: Gene expression by qRT-PCR; type: cell-based, human; conditions: 1 μM, mean 2^∆∆Ct, DMSO 1.383
Excerpt: as §1, §2

chorioallantoic membrane = assay: Chorioallantoic membrane (CAM) angiogenesis assay; type: in vivo, chicken; conditions: 1 µM in 0.5% DMSO
Procedure: CAM test also allows the assessment of a drug’s activity on tumor proliferation and distant metastasis, as well as drug toxicity. […] No anomalies were noticed in the angiogenic process after treatment with 0.5% DMSO in distilled water used as control.
The basic CAM assay protocol makes use of fertilized chicken eggs, incubated at 37 °C, under controlled humidity. On the third day of incubation (embryonic day of development, EDD), a small opening was made at one end of the eggs and 5–6 mL of albumen were removed, thus facilitating the separation of the chorioallantoic membrane. On EDD 4, a window was cut on the upper side of the egg and subsequently resealed, returning the specimens to the incubator. On EDD 7 (0 h), 10 µL of each test solution were administered inside a plastic ring previously applied on the intensely vascularized surface of the CAM [93]. All compounds were tested at a concentration of 1 µM in DMSO 0.5%, which also represented the control sample. All samples were daily applied in the same volume, for 72 h. For each analyzed sample, 5 eggs were used, and all samples were applied in triplicate. Macroscopic evaluation was daily performed in ovo by means of stereomicroscopy (ZEISS SteREO Discovery.V8, Göttingen, Germany), and all images were registered and processed by Axiocam 105 color, AxioVision SE64. Rel. 4.9.1 Software, (ZEISS Göttingen, Germany), ImageJ (ImageJ Version 1.50e, https://imagej.nih.gov/ij/index.html, accessed on 3 June 2021) and GIMP software (GIMP v 2.8, https://www.gimp.org/, accessed on 3 June 2021).

[2] = EDD7 to EDD10, up to 72 h post-treatment

CCN1CCN(C(=O)[C@]23CC[C@@H](C)[C@H](C)[C@H]2C2=CC[C@@H]4[C@@]5(C)C/C(=C/c6cccnc6)C(=O)C(C)(C)[C@@H]5CC[C@@]4(C)[C@]2(C)CC3)CC1 [Compound 9, N-(2-{3-Pyridinylidene}-3-oxoursan-12-en-28-oyl)-ethylpiperazine]
GI50 (SR): 2.18 µM
CC50 (SR): > 100 µM
TGI (SR): 6.35 µM
GI50 (SNB-75): 1.57 µM
CC50 (SNB-75): 39.9 µM
TGI (SNB-75): 8.91 µM

CCN1CCN(C(=O)[C@]23CCC(C)(C)C[C@H]2C2=CC[C@@H]4[C@@]5(C)C/C(=C/c6cccnc6)C(=O)C(C)(C)[C@@H]5CC[C@@]4(C)[C@]2(C)CC3)CC1 [Compound 6]
stability in cell culture media (TLC) [1]: no signs of decomposition
Expression of Bcl-XL gene, Mean (Bcl-XL gene, SK-Mel-28): 0.003 ***
Expression of BAX gene, Mean (BAX gene, SK-Mel-28): 0.140 ***
Expression of Bcl-2 gene, Mean (Bcl-2 gene, SK-Mel-28): 0.083 **
Expression of BAX gene, Mean (BAX gene, A375): 0.590 ***
Expression of Bcl-XL gene, Mean (Bcl-XL gene, RPMI): 1.050 *
Expression of BAK gene, Mean (BAK gene, RPMI): 11.853 **
Expression of Bcl-2 gene, Mean (Bcl-2 gene, A375): 1.166
Expression of BAX gene, Mean (BAX gene, RPMI): 0.640 **
Expression of Bcl-XL gene, Mean (Bcl-XL gene, A375): 0.300
Expression of Bcl-2 gene, Mean (Bcl-2 gene, RPMI): 0.236 ***
Expression of BAK gene, Mean (BAK gene, A375): 0.516 ***
Expression of BAK gene, Mean (BAK gene, SK-Mel-28): 91.283 ***
GI50 (SR): 0.959 µM
CC50 (SR): > 100 µM
TGI (SR): 5.13 µM
effect on angiogenesis (CAM) (chorioallantoic membrane; [2]): did not significantly alter the angiogenesis process
effect on angiogenesis (CAM) (chorioallantoic membrane; after 24 h): weak antiangiogenic process

CCN1CCN(C(=O)[C@]23CC[C@@H](C)[C@H](C)[C@H]2C2=CC[C@@H]4[C@@]5(C)CCC(=O)C(C)(C)[C@@H]5CC[C@@]4(C)[C@]2(C)CC3)CC1 [Compound 4, N-(3-oxo-ursan-12-en-28-oyl)-ethylpiperazine]
stability in cell culture media (TLC) [1]: no signs of decomposition
Expression of Bcl-XL gene, Mean (Bcl-XL gene, SK-Mel-28): 0.086 ***
Expression of BAX gene, Mean (BAX gene, SK-Mel-28): 0.023 ***
Expression of Bcl-2 gene, Mean (Bcl-2 gene, SK-Mel-28): 0.083 *
Expression of BAX gene, Mean (BAX gene, A375): 0.270 ***
Expression of BAK gene, Mean (BAK gene, RPMI): 156.243 ***
Expression of Bcl-2 gene, Mean (Bcl-2 gene, A375): 0.7366 **
Expression of BAX gene, Mean (BAX gene, RPMI): 0.460 **
Expression of Bcl-XL gene, Mean (Bcl-XL gene, A375): 0.500 *
Expression of Bcl-2 gene, Mean (Bcl-2 gene, RPMI): 1.483 *
Expression of BAK gene, Mean (BAK gene, A375): 0.706 ***
Expression of BAK gene, Mean (BAK gene, SK-Mel-28): 101.820 **
effect on angiogenesis (CAM) (chorioallantoic membrane; [2]): no alterations were noticed in terms of angiogenesis
GI50 (SNB-75): 1.03 µM
CC50 (SNB-75): 17.2 µM
TGI (SNB-75): 3.82 µM
